Assay [1] relates to 15 pancreatic, non-small cell lung, and bladder cancer cell lines: 10 MTAP null and 5 MTAP wild-type. The assay can be described thus: 10-day proliferation screen with Compound A pre-treatment, panel summary (Example 3). Format: cell-based. The method, then:
A 10-day proliferation screen was performed in 15 pancreatic, non-small cell lung, and bladder cancer cell lines: 10 MTAP null and 5 MTAP wild-type. Optimal cell seeding for all cell lines was determined by assessing the growth over a range of seeding densities in a 384-well format to identify conditions that permitted proliferation for 10 days. Cells were then plated at the optimal seeding density in the presence of 20-150 nM of Compound A or DMSO vehicle control. Cells were incubated at 37° C. with 5% CO2 for 4 days to allow for target engagement of the pre-treatment compound. Maintaining the pre-treatment condition, cells were also treated with an 11-point, three-fold titration series of compounds from a chemically diverse library of 424 compounds. […] A plate of cells was harvested at the time of combination compound addition to quantify the number of cells at the start of the combination (T0). For cell quantification, the harvested cells were lysed with CellTiter-Glo (CTG) (Promega) reagent according to the manufacturer's protocol and the chemiluminescent signal was detected on a Synergy Neo plate reader (ThermoFisher, serial #140715A). […] Cells were then lysed with CTG and the chemiluminescent signal was measured. CTG values obtained after the 10-day treatment were background subtracted, expressed as a percent of the T0 value, and plotted against compound concentration. […]

The subject of assay [2] is UMUC5. The assay can be described thus: 10-day proliferation screen with Compound A pre-treatment (Example 3). The class given is cell-based. The conditions noted are these: read-out: Growth IC50. The method, then:
(§1) A 10-day proliferation screen was performed in 15 pancreatic, non-small cell lung, and bladder cancer cell lines: 10 MTAP null and 5 MTAP wild-type. Optimal cell seeding for all cell lines was determined by assessing the growth over a range of seeding densities in a 384-well format to identify conditions that permitted proliferation for 10 days. Cells were then plated at the optimal seeding density in the presence of 20-150 nM of Compound A or DMSO vehicle control. Cells were incubated at 37° C. with 5% CO2 for 4 days to allow for target engagement of the pre-treatment compound. Maintaining the pre-treatment condition, cells were also treated with an 11-point, three-fold titration series of compounds from a chemically diverse library of 424 compounds. The combination compound concentrations ranged from 0.2 nM to 14,679 nM. A plate of cells was harvested at the time of combination compound addition to quantify the number of cells at the start of the combination (T0). For cell quantification, the harvested cells were lysed with CellTiter-Glo (CTG) (Promega) reagent according to the manufacturer's protocol and the chemiluminescent signal was detected on a Synergy Neo plate reader (ThermoFisher, serial #140715A). CTG estimates cell number through detection of cellular ATP levels. Cells were incubated with the drug combinations at 37° C. with 5% CO2 for an additional 6 days for a total of a 10-day assay including the pre-treatment. Cells were then lysed with CTG and the chemiluminescent signal was measured. CTG values obtained after the 10-day treatment were background subtracted, expressed as a percent of the T0 value, and plotted against compound concentration. Data were fit with a four-parameter equation to generate concentration response curves. Growth IC50 values and maximal growth inhibition were compared between the DMSO and the Compound A pre-treated cells for each combination titration. Combination hit calling was based on the observation of >2-fold shift in growth IC50 and/or greater than 20% […] in growth inhibition.

The test system of assay [3] is HuP-T4. Described as above. The class given is cell-based. To be noted: Homo sapiens, read-out: Growth IC50. The procedure: as §1
Assay [4] has as its system UMUC11. The description is as above. The class given is cell-based. The conditions noted are these: read-out: Growth IC50. The method, then:
as §1

Assay [5] has as its system NCI-H520. The assay is described as above. The class given is cell-based. To be noted: Homo sapiens, read-out: Growth IC50. The method, then: as §1
In assay [6] the test system is NCI-H838. The description is as above. The conditions noted are these: Homo sapiens, read-out: Growth IC50. Format: cell-based. The method, then: as §1
For assay [7], the system named is SW900. The description is as above. The class given is cell-based. To be noted: Homo sapiens, read-out: Growth IC50. The procedure: as §1
The subject of assay [8] is J82. The description is as above. The class given is cell-based. The conditions noted are these: Homo sapiens, read-out: Growth IC50. The method, then: as §1
In assay [9] the test system is OE33. Described as above. Format: cell-based. The conditions noted are these: Homo sapiens, read-out: Growth IC50. The procedure:
as §1

Assay [10] deals with TCCSUP. The description is as above. The class given is cell-based. To be noted: Homo sapiens, TCC-SUP, read-out: Growth IC50. The procedure: as §1
Assay [11] concerns SKGT4. Described as above. The class given is cell-based. The conditions noted are these: read-out: Growth IC50.
For assay [12], the system named is LMSU (RCB1062) human gastric tumor cell-derived xenograft (CDX) models. The assay can be described thus: Anti-tumor activity in LMSU gastric mouse xenograft (CDX) model (Example 9). Format: in vivo. To be noted: Compound A 10 mg/kg oral once per day. The method, then: All mouse studies were approved by the Institutional Animal Care and Use Committee (IACUC) based on guidelines from the National Institutes of Health (NIH). Mice were maintained under pathogen-free conditions, and food and water were provided ad libitum.
The anti-tumor effect of Compound A and irinotecan hydrochloride as single-agents or in combination was assessed in the LMSU (RCB1062) human gastric tumor cell-derived xenograft (CDX) models. LMSU was expanded in HamF10 with 10% fetal bovine serum. Cells were free of mycoplasma and authenticated by STR profiling, and ten million cells in log growth phase were resuspended in Hanks Balanced Salt Solution containing 50% Matrigel and implanted subcutaneously into the flank of each recipient female Crl:NU-Foxn1nu mouse. Mice were housed in microisolator cages with corn cob bedding with additional enrichment consisting of sterile nesting material (Innovive) and Bio-huts (Bio-Serv). Water (Innovive) and diet (Teklad Global 19% Protein Extruded Diet 2919, Irradiated) were provided ad libitum. The environment was maintained on a 12-hour light cycle at approximately 68-72° F. and 40-60% relative humidity.
Tumor Volume (TV) was calculated using the following formula: TV (mm^3)=(width×width×length)/2. Tumor growth inhibition (TGI) was calculated by [(TV controlfinal−TV treatedfinal)/(TV controlfinal−TV controlinitial)×100]. TV was analyzed for statistical significance utilizing GraphPad Prism version 10.2.2. Repeated Measures 2-Way ANOVA with Dunnet's Multiple Comparisons was utilized, and P-values were derived from data collected on the date of Vehicle group termination and were considered statistically significant if less than 0.05.
Mean tumor volume at dosing start was approximately 185 mm^3, with seven mice randomized to each treatment group. Mice were dosed orally, once per day, with Vehicle, Compound A at 10 mg/kg, or dosed for 3 consecutive days followed by 4 days holiday by intraperitoneal (IP) injection of Compound B at 5 mg/kg or 10 mg/kg, or combination of Compound A and Compound B. The vehicle group was a combination of Vehicle A (for Compound A, 0.5% 400 cps methylcellulose with 0.5% Tween-80 in sterile water) and Vehicle B (for irinotecan hydrochloride, Saline).

Results on 2 compounds are retold here after US20260294915A1, “COMBINATION THERAPY COMPRISING A MAT2A INHIBITOR AND A TOPOISOMERASE INHIBITOR, A SPLICING INHIBITOR SULFONAMIDE, OR A KIF18 INHIBITOR” (IDEAYA BIOSCIENCES, INC., priority 2023, published 2026).

Read-outs that look alike come from different tables or passages of the source.

Broadly, the IC50 is the point on the concentration scale where inhibition reaches its midpoint. In the case of `NS(=O)(=O)c1ccc(S(=O)(=O)Nc2cccc3c(Cl)c[nH]c23)cc1` [Indisulam, N-(3-chloro-1H-indol-7-yl)benzene-1,4-disulfonamide], the “cell lines with growth IC50 shifts ≥2-fold” value is on record as 7/10 in assay [1] (MTAP-deficient cell lines) and 1/5 in [1] (wild type cell lines). Further, the IC50 in assay [2] (Cmpd A pre-treatment 150 nM) amounted to 0.807 µM; in assay [2] (DMSO pre-treatment), 1.83 µM; in assay [3] (HuP-T4, Cmpd A pre-treatment 150 nM), 0.549 µM; in assay [3] (HuP-T4, DMSO pre-treatment), 1.07 µM; in assay [4] (Cmpd A pre-treatment 150 nM), 1.27 µM; in assay [4] (DMSO pre-treatment) it was 0.864 µM. The half-maximal inhibitory concentration (IC50) came to 0.79 µM in [5] (NCI-H520, Cmpd A pre-treatment 80 nM); 0.727 µM in [5] (NCI-H520, DMSO pre-treatment); 0.539 µM in assay [6] (NCI-H838, Cmpd A pre-treatment 20 nM); 0.342 µM in [6] (NCI-H838, Cmpd A pre-treatment 150 nM); 1.05 µM in assay [6] (NCI-H838, DMSO pre-treatment (control for 20 nM Cmpd A)); 0.807 µM in assay [6] (NCI-H838, DMSO pre-treatment (control for 150 nM Cmpd A)). Besides, the IC50 came to 1.1 µM in assay [7] (SW900, Cmpd A pre-treatment 80 nM); 2.28 µM in assay [7] (SW900, DMSO pre-treatment); 7.1 µM in assay [8] (J82, Cmpd A pre-treatment 150 nM); 12.5 µM in assay [8] (J82, DMSO pre-treatment); 5.37 µM in assay [9] (OE33, Cmpd A pre-treatment 150 nM); 12.1 µM in assay [9] (OE33, DMSO pre-treatment). In addition, the IC50 in assay [10] (Cmpd A pre-treatment 150 nM) was determined as 6.08 µM; in assay [10] (DMSO pre-treatment) it was 8.66 µM; in assay [11] (SKGT4, Cmpd A pre-treatment 150 nM), 0.516 µM; in [11] (SKGT4, DMSO pre-treatment), 1.06 µM.
With `Nc1nc(=O)n(-c2ccccc2Cl)c2nc(C(F)(F)F)ccc12` [Compound A], in assay [12], the “Day 11 TGI” value is recorded as −6%, the “TGI” value was “no significant TGI” and the “Tumor Regression Rate on Day 11” value is recorded as 0%. Besides, the “Day 11 TV (mean)” value in assay [12] (initial TV 186, vehicle 1018) was 1069 mm^3.
